{
  "source": "patent US6514955B1",
  "about": "“Multi-faceted method to repress reproduction of latent viruses in humans and animals” (HIV Diagnostics, Inc., priority 1993, dated 2003)",
  "key": {"[1]": {"conditions": "cited from earlier work"}, "[2]": {"target": "NADPH oxidase (Homo sapiens, UniProt P04839)", "sequence (P04839 2-570 limits assumed)": "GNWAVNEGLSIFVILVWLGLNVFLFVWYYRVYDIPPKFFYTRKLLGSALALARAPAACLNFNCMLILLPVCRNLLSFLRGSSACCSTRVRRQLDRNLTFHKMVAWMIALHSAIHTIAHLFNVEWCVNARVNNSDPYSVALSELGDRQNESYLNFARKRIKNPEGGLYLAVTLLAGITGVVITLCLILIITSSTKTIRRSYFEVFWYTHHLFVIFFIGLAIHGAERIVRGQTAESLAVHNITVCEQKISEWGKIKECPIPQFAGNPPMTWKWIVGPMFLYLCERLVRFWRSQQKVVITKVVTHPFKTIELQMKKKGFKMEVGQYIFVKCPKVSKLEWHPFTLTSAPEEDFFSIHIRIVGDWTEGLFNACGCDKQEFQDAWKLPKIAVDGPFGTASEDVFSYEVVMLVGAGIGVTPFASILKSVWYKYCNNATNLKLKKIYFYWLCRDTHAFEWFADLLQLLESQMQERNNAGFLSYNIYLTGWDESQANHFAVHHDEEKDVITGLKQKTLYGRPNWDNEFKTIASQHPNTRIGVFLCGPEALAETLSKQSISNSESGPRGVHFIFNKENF", "sequence (P13498 2-195 partner limits assumed)": "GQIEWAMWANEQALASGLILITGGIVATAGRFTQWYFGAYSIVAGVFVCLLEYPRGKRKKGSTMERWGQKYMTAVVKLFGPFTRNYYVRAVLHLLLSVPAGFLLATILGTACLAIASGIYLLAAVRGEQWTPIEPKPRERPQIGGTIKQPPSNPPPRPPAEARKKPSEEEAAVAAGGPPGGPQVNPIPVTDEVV", "conditions": "cited from earlier work"}, "[3]": {"tested_on": "hybridoma macrophages", "test": "Oxidant release in LPS or interferon activated hybridoma macrophages", "type": "cell-based", "excerpt": "PMA activates the oxidative burst. The oxidant detected is the same oxidant seen in Kupfer liver cells and lung macrophages: peroxynitrite."}},
  "data": [
    {"smiles": "O=C1NC(C(=O)O)CS1", "note": "(stereo not shown) [2-oxo-4-thiazolidene carboxylic acid]", "values": [
      {"measurement": "Oral doses administered without toxicity", "setting": "[1]; in vivo, po", "result": "0.15 to 0.45", "unit": "mmol/kg"}
    ]},
    {"smiles": "CC(=O)N[C@@H](CS)C(=O)O", "note": "[N-acetyl cysteine]", "values": [
      {"measurement": "Daily dose usable without toxic side effects", "setting": "[1]; man, daily", "result": "Up to 40 mg per kilogram of body weight"}
    ]},
    {"smiles": "c1ccc2c(c1)[I+]c1ccccc1-2", "note": "[diphenylene iodonium]", "values": [
      {"measurement": "Concentration printed for NADPH oxidase inhibitor", "setting": "[2]", "result": 15, "unit": "nM"}
    ]},
    {"smiles": "CCCCCCCCCCCCCC(=O)O[C@@H]1[C@@H](C)[C@@]2(O)[C@@H](C=C(CO)C[C@]3(O)C(=O)C(C)=C[C@@H]23)[C@@H]2C(C)(C)[C@]12OC(C)=O", "note": "[phorbol myristate acetate]", "values": [
      {"measurement": "Stimulation of oxidant (peroxynitrite) produced", "setting": "[3]", "result": "about 40 fold"}
    ]}
  ]
}
